Assay results taken from patent US5886011A, “Piperidine derivatives as substance P antagonists” (Hisamitsu Pharmaceutical Co., Inc., priority 1995, dated 1999).

Experiments:
[1] = molecular target: T1, Substance P receptor (guinea pig ileum longitudinal muscle) (Cavia porcellus, UniProt P30547); experiment: Receptor-binding test ([125I]SP ligand, guinea pig ileum longitudinal muscle receptor samples); settings: 10^-8 M compound; [125I]SP 50 pM, 22° C., 20 minutes
T1 construct: ileum was removed and the longitudinal muscle was stripped off; from tissue; host or cells: guinea pig ileum longitudinal muscle, washed membrane pellets
Description: To the longitudinal muscles, 20 times of the wet weight of the buffer solution (1) (50 mM tris-HCl buffer solution containing 2 mM MgCl2 and 0.1 mM phenyl methyl sulfonyl-fluoride, pH 7.4) was added. The mixture was homogenized under ice-cooling and centrifuged at 48,000×G for 15 minutes. After removing the supernatant, the pellets were re-suspended in the buffer solution (1) and centrifuged at 48,000×G for 15 minutes. The buffer solution (2) (50 mM tris.HCl buffer solution containing 10 mM ethylenediaminetetraacetic acid and 300 mM KCl, pH 7.4) was added to the pellets and suspended to be reacted under ice-cooling for 60 minutes. The resulted reaction materials were centrifuged at 48,000×G for 15 minutes. After suspending the pellets in the buffer solution (1) and distributing, the mixture were centrifuged at 48,000×G for 15 minutes. The pellets were stored at -80° C. until used as receptor samples.
Thus obtained receptor samples were suspended in 50 mM tris-HCl buffer solution to be used. As the buffer solution, binding buffer solution (tris.HCl buffer solution containing 0.02% bovine serum albumin, 40 μg/ml bacitracin, 4 μg/ml chymostatin, 4 μg/ml leupeptin and 3 mM MnCl2, pH7.4) was used.

[2] = test system: Substance P (guinea pig ileum); experiment: Bioassay test: Substance P-induced contraction of guinea pig ileum strips; settings: 10^-7 M compound; contraction by 10^-8 M Substance P regarded as 100%
Description: B. Bioassay Test […] After exsanguinating guinea pigs (body weight: 500-600 g) deadly, ileum was removed and 2 cm of ileum strips were prepared. In a Tyrode's solution (10 ml, 37° C.) in which air is passed, containing 5.2 μM atropine and 4.1 μM indomethacin, the strips having 0.5 g resting tension was suspended, and contractions of muscle were recorded on a recording device (RTA-1200, manufactured by Nihon Kohden) via an isotonic transducer (TB-612T, manufactured by Nihon Kohden). Using three specimens per one group, effects of the subject drugs on the muscle contraction caused by 10^-8 M Substance P were determined.

Substance P = experiment: Antagonism test on Substance P-induced airway edema; format: in vivo, guinea pig (hartley male); settings: Cavia porcellus, po, compared to the control group, read-out: Inhibition Rate (airway edema, dye transudated into trachea and main bronchi); for inhibition in vivo at 1 mg/kg: 1 mg/kg orally, thirty minutes before induction
Description: C. Antagonism Test on Substance P-induced Airway Edema
20 mg/kg of Evans' Blue and 1 nm/kg Substance P containing 200 I.U./kg of heparin were administered intravenously to hartley male guinea pigs in order to induce airway edema. After ten minutes, the guinea pigs were exsanguinated deadly. The amounts of the dye transudated into trachea and main bronchi were determined. 1 mg/kg of the subject compounds were administered orally at thirty minutes before the induction. […] Further, for comparison, the following compounds A and B were used.

cisplatin-induced emesis = experiment: Anti-emetic effect against cisplatin-induced emesis; format: in vivo, ferret (male)
Description: D. Anti-emetic Effect against Cisplatin-induced Emesis
The test was carried out using male ferret (approx. 1.5 kg.). Emesis was induced by intraperitoneal administration of cisplatin (10 mg/kg). 1 mg/kg of the subject compounds were administered orally just after the cisplatin administration. The results will be shown in Table 3 as the inhibition rates compared to the control group, using the number of vomits as indexes. Further, for comparisons, the following compounds A and C were used.

SD rats = experiment: Toxicity test, seven days; format: in vivo, rat (male SD); settings: 3, 10 and 30 mg/kg, male SD rats
Description: 3, 10 and 30 mg/kg of the compound of Example 46 are administered to five male SD rats per one group for seven days. The compound had no influence on body weights gains, organ weights, numbers of erythrocytes nor numbers of leukocytes.

[3] = 1 mg/kg orally just after cisplatin (10 mg/kg i.p.), compared to the control group

T1 sequence (P30547 whole entry): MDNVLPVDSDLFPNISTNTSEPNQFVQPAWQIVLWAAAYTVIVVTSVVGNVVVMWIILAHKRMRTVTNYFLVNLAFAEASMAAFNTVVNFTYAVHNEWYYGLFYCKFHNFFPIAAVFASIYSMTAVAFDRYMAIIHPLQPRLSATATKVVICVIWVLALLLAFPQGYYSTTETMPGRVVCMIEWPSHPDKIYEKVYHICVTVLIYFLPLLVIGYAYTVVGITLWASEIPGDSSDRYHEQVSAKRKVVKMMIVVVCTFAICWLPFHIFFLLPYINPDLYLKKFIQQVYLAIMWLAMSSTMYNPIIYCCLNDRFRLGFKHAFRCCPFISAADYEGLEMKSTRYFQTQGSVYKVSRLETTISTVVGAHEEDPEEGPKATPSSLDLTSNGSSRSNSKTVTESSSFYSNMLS

Cl.c1ccc([C@@H]2NCCC[C@@H]2NCc2cc(C3CCCC3)cc3c2OCC3)cc1 [Example 25, (2S,3S)-3-[(5-cyclopentyl-2,3-dihydrobenzofuran-7-yl)methyl]amino-2-phenylpiperidine hydrochloride]
inhibition at 0.01 µM [1]: 89.2%
Contriction Inhibition [2]: 85.1%
inhibition in vivo at 1 mg/kg (Substance P): 90%
Inhibition Rate (number of vomits) (cisplatin-induced emesis; [3]): 73%

CSc1cc2c(c(CN[C@H]3CCCN[C@H]3c3ccccc3)c1)OCC2.Cl [Example 46, (2S,3S)-3-[(5-methylthio-2,3-dihydrobenzofuran-7-yl)methyl]amino-2-phenylpiperidine hydrochloride]
inhibition at 0.01 µM [1]: 65.3%
Contriction Inhibition [2]: 72.3%
inhibition in vivo at 1 mg/kg (Substance P): 72%
Inhibition Rate (number of vomits) (cisplatin-induced emesis; [3]): 60%
influence on body weights gains (SD rats): no influence
influence on numbers of erythrocytes (SD rats): no influence
influence on numbers of leukocytes (SD rats): no influence
influence on organ weights (SD rats): no influence

COc1ccccc1CN[C@H]1CCCN[C@H]1c1ccccc1.Cl [Compound A, (2S,3S)-3-(2-methoxybenzyl)amino-2-phenylpiperidine hydrochloride, reference compound]
inhibition in vivo at 10 mg/kg (Substance P; 10 mg/kg (comparison compound), orally): 12%
Inhibition Rate (number of vomits) (cisplatin-induced emesis; 10 mg/kg (comparison compound), orally just after cisplatin (10 mg/kg i.p.)): 19%

Cl.FC(F)(F)Oc1cc2c(c(CN[C@H]3CCCN[C@H]3c3ccccc3)c1)OCC2 [Example 53, (2S,3S)-3-[(5-trifluoromethoxy-2,3-dihydrobenzofuran-7-yl)methyl]amino-2-phenylpiperidine hydrochloride]
inhibition at 0.01 µM [1]: 53.5%
Contriction Inhibition [2]: 69.3%
inhibition in vivo at 1 mg/kg (Substance P): 69%
Inhibition Rate (number of vomits) (cisplatin-induced emesis; [3]): 65%

COc1ccc(C(C)C)cc1CN[C@@H]1CN2CCC1CC2.Cl [Compound C, (2S,3S)-N-(5-isopropyl-2-methoxyphenyl)methyl-1-azabicyclo[2,2,2]octane-3-amine hydrochloride, reference compound]
Inhibition Rate (number of vomits) (cisplatin-induced emesis; [3]): 10%

CC(C)c1cc2c(c(CN[C@H]3CCCN[C@H]3c3ccccc3)c1)OCC2.Cl [Example 23, (2S,3S)-3-[(5-isopropyl-2,3-dihydrobenzofuran-7-yl)methyl]amino-2-phenylpiperidine hydrochloride]
inhibition at 0.01 µM [1]: 83.2%
Contriction Inhibition [2]: 80.3%
inhibition in vivo at 1 mg/kg (Substance P): 89%
Inhibition Rate (number of vomits) (cisplatin-induced emesis; [3]): 70%
